The structures appear in SMILES notation.

The text below walks through data of patent US11548855B2, “Pyrazole amide compound and application thereof, and fungicide” (Shandong United Pesticide Industry Co. Ltd., priority 2017, dated 2023).

For test [1], the system named is corn rust (Puccinia sorghi). Description: Greenhouse pot test, corn rust. The class given is in vivo. Here is the method:
(§1) Test method: each of the test compounds in Table 1 was dispensed to 5 wt % emulsifiable concentrate (hereinafter referred to as 5% EC). The greenhouse pot test was used in each experiment, and the effective concentrations of each compound were illustrated in Table 1.
Corn rust: two-three leaf stage potted corn seedling with uniform growth was selected and made foliar spray treatment with 5% EC, the blank control sprayed with clean water was additionally arranged, three replicates were carried out. After 24 h, the leaves of the host plants were inoculated with sporangial suspensions of the fungi corn rust (Puccinia sorghi), the plants were stored in humidity chamber (temperature: lighting 25° C., dark 20° C., relative humidity 95-100%) and then transferred to greenhouse (25±1° C.) 24 h after infection. After 7 days, the screening results were investigated according to the disease incidence condition of blank control.
(§2) The investigation method: “Guidelines for the field efficacy trials of pesticides” was adopted as the grading standard, and the control effect in a unit of % was calculated based on the disease index. Disease index=Σ(number of diseased leaves at each grade×relative grade value)×100/(total number of leaves×9); Control effect (%)=(disease index of control−disease index of treated)×100/disease index of control;
(§3) The compounds provided by the present disclosure and some control compounds were tested by the same methods in the Test example 1, except that the effective concentrations of the compounds in this Test example are shown in Table 2.

In test [2] the test system is soybean rust (Phakopsora pacchyrhizi Sydow). Description: Greenhouse pot test, soybean rust. Format: in vivo. Here is the method:
as §1
Soybean rust: two-leaf stage potted soybean seedling with uniform growth was selected and made foliar spray treatment with 5% EC, the blank control sprayed with clean water was additionally arranged, three replicates were carried out. After 24 h, the leaves of the host plants were inoculated with sporangial suspensions of the fungi soybean rust (Phakopsora pacchyrhizi Sydow), the plants were stored in humidity chamber (temperature 20-25° C., relative humidity>95%) and then transferred to greenhouse (25±1° C.) 8-16 h after infection. After 7 days, the screening results were investigated according to the disease incidence condition of blank control.
as §2, §3

In test [3] the test system is wheat powdery mildew (Erysiphe graminis). As to the kind of experiment: Greenhouse pot test, wheat powdery mildew. The class given is in vivo.
Text: as §1
Wheat powdery mildew: two-leaf stage potted wheat seedling with uniform growth was selected and made foliar spray treatment with 5% EC, the blank control sprayed with clean water was additionally arranged, three replicates were carried out. After 24 h, the leaves of the host plants were inoculated by shake-down method with sporangial suspensions of the fungi wheat powdery mildew (Erysiphe graminis), the plants were stored in a greenhouse (25±1° C.). After 7 days, the screening results were investigated according to the disease incidence condition of blank control.
as §2, §3

Another test concerns cucumber powdery mildew. As to the kind of experiment: Greenhouse pot test, cucumber powdery mildew. As to conditions: greenhouse pot. Format: in vivo. Here is the method: as §1
Cucumber powdery mildew: cucumber seedling in a true leaf period with uniform growth was selected, and dried in the shade for 24 h after spray treatment. Fresh cucumber powdery mildew spores on the cucumber leaves were collected and washed, and filtered through a double gauze to prepare a spores suspension with concentration of about 100,000/mL, then spray inoculation was applied. The test materials inoculated were moved into a greenhouse (lighting 21-23° C.), after 8 days, the grading investigation was carried out according to the disease incidence condition of blank control, and the control effect in a unit of % was calculated according to disease index.
as §2, §3

The subject of test [4] is rice sheath blight fungi (Rhizoctonia solami). Description: Greenhouse pot test, rice sheath blight. Format: in vivo. As to the method:
as §3
In addition, the test method for rice sheath blight as following steps:
The potted rice seedling with uniform growth was selected, and dried in the shade for 24 h after spray treatment, then inoculated 3 blocks of 0.25 cm^2 rice sheath blight fungi (Rhizoctonia solami) at the base of seedling by clamp inoculation bacterium block method. The test materials inoculated were moved into greenhouse (temperature: lighting 28° C., dark 25° C., relative humidity 95%), after 7 days, investigate 5 leaves of per block treatment, the grading investigation was carried out according to the disease incidence condition of sheaths and leaves of rice, “Guidelines for the field efficacy trials of pesticides” was adopted as the grading standard, the disease index was calculated according to the grading standard, and the control effect in a unit of % was calculated according to disease index.

For another test, the system named is wheat powdery mildew. Description: Field trial, wheat powdery mildew. The class given is in vivo, Erysiphe graminis. As to conditions: 100 mg/L, sprayed once. As to the method: II. The Wheat Powdery Mildew Test Method:
(§4) Spray method: Stein and leaf spraying (Applicator: Xinkangda lithium battery electric sprayer).
Test crops: wheat (cultivars: Liaochun 10)
(§5) The test was carried out in Shenyang, the test field was loam with rich organic matters and normal management of fertilizer and water, and no other pesticide was applied during the test.
The arrangement of the test plot was random block permutation; the area of the test plot: 15 m^2; repeat times: 3 times; spray time and frequency: Sep. 17, 2018, once. Spray dosage: each treatment was repeated 3 times, the total water consumption was 8 L. No other pesticide was applied during the test.
The incidence of disease spots in each plot was investigated by diagonal selecting 4 samples/plot and 20 plants/samples, and the first leaf below the flag leaf of each plant was investigated.
(§6) The grading standard of crop disease was as follows:
(§7) Grade 0: no leaf-spot area;
(§8) Grade 1: the ratio of leaf-spot area to leaf area is less than 5%;
(§9) Grade 3: the ratio of leaf-spot area to leaf area is between 6-25%;
(§10) Grade 5: the ratio of leaf-spot area to leaf area is between 26-50%;
(§11) Grade 7: the ratio of leaf-spot area to leaf area is between 51-75%;
(§12) Grade 9: the ratio of leaf-spot area to leaf area is between 76-100%;
(§13) According to the relevant content of the “Guidelines for the field efficacy trials of pesticides of the People's Republic of China (PRC)”, the disease index was calculated according to the grading standard, and the control effect in a unit of % was calculated based on the disease index, and the test data of significance analysis was performed by using DPS evaluation system (DMRT).

In another test the test system is soybean rust. As to the kind of experiment: Field trial, soybean rust. The class given is in vivo, Phakopsora pacchyrhizi Sydow. As to conditions: sprayed 2 times. As to the method: III. The Soybean Rust Test Method:
as §4
Test crops: soybean (cultivars: Glycine max(L) Merr)
as §5
The arrangement of the test plot was random block permutation; the area of the test plot: 25 m^2; repeat times: 3 times; spray time and frequency: 2 times on Aug. 11, 2018 and Aug. 21, 2018 respectively. Spray dosage: each treatment was repeated 3 times, the total water consumption was 8 L. No other pesticide was applied during the test. […] 15-20 days after the second spray treatment, the control effect was investigated.
The incidence of disease spots in each plot was investigated by diagonal selecting 5 samples/plot and 20 plants/samples, 10 leaves/plant was surveyed.
as §6, §7, §8, §9, §10, §11, §12, §13

For the compound `Cn1cc(C(=O)Nc2cccc3c2[C@@H]2CC[C@H]3C2=C(Cl)Cl)c(C(F)F)n1` (racemic) [Benzovindiflupyr], the “Control effect (%) Corn rust” value in test [1] (1.5625 mg/L) came to 95%; in test [1] (3.1250 mg/L), 98%. The “Control effect (%) Soybean rust” value in test [2] (0.5 mg/L) came to 95%; in test [2] (1 mg/L) it was 98%; in test [2] (1.5625 mg/L), 100%; in test [2] (3.1250 mg/L), 100%. In addition, the “Control effect (%) Wheat powdery mildew” value in test [3] (1.5625 mg/L) is 50%; in test [3] (3.1250 mg/L), 70%; with wheat powdery mildew it was 95%. Also, the “Control effect (%) Cucumber powdery mildew” value in the test with cucumber powdery mildew (1.5625 mg/L) came to 20%; in the test on cucumber powdery mildew (6.25 mg/L), 80%; with cucumber powdery mildew (25 mg/L) it was 100%; in the test on cucumber powdery mildew (100 mg/L), 100%. For the same compound, the “Control effect (%) Rice sheath blight” value in test [4] (0.5 mg/L) stood at 30%; in test [4] (1 mg/L), 40%; in test [4] (1.5625 mg/L) it was 55%; in test [4] (3.1250 mg/L), 65%. The “Control effect (%)” value in the test on soybean rust (dosage 50 mg/L) was 91.46%; in the test with soybean rust (dosage 75 mg/L), 94.51%; in the test with soybean rust (dosage 100 mg/L) it was 97.15%.

On to `CO/C=C(/C(=O)OC)c1ccccc1Oc1cc(Oc2ccccc2C#N)ncn1` [Azoxystrobin], for which the “Control effect (%) Cucumber powdery mildew” value with cucumber powdery mildew (100 mg/L) amounted to 0%; in the test with cucumber powdery mildew (400 mg/L), 30%. In the test with soybean rust (dosage 50 mg/L), the “Control effect (%)” value was found to be 84.62%.

As to `Cn1cc(C(=O)Nc2ccccc2Oc2ccc(C(F)(F)F)cc2I)c(C(F)F)n1` [Compound 4], the pest or weed control at 1.5625 µg/mL was determined as 50% in test [1] (Puccinia sorghi, 168 h, 1.5625 mg/L, read-out: Control effect (%) Corn rust); 98% in test [2] (Glycine max, 168 h, 1.5625 mg/L, read-out: Control effect (%) Soybean rust); 30% in test [3] (Blumeria graminis, 168 h, 1.5625 mg/L, read-out: Control effect (%) Wheat powdery mildew). In addition, the pest or weed control at 3.125 µg/mL in test [1] (Puccinia sorghi, 168 h, 3.1250 mg/L, read-out: Control effect (%) Corn rust) is 90%; in test [2] (Glycine max, 168 h, 3.1250 mg/L, read-out: Control effect (%) Soybean rust), 100%; in test [3] (Blumeria graminis, 168 h, 3.1250 mg/L, read-out: Control effect (%) Wheat powdery mildew), 70%. Besides, the pest or weed control at 6.25 µg/mL in test [1] (Puccinia sorghi, 168 h, 6.25 mg/L, read-out: Control effect (%) Corn rust) is 98%; in test [2] (Glycine max, 168 h, 6.25 mg/L, read-out: Control effect (%) Soybean rust), 100%; in test [3] (Blumeria graminis, 168 h, 6.25 mg/L, read-out: Control effect (%) Wheat powdery mildew), 10%. The pest or weed control at 25 µg/mL came to 100% in test [1] (Puccinia sorghi, 168 h, 25 mg/L, read-out: Control effect (%) Corn rust); 100% in test [2] (Glycine max, 168 h, 25 mg/L, read-out: Control effect (%) Soybean rust); 25% in test [3] (Blumeria graminis, 168 h, 25 mg/L, read-out: Control effect (%) Wheat powdery mildew). In addition, the pest or weed control at 100 µg/mL amounted to 100% in test [1] (Puccinia sorghi, 168 h, 100 mg/L, read-out: Control effect (%) Corn rust); 100% in test [2] (Glycine max, 168 h, 100 mg/L, read-out: Control effect (%) Soybean rust); 60% in test [3] (Blumeria graminis, 168 h, 100 mg/L, read-out: Control effect (%) Wheat powdery mildew). Also, the “Control effect (%)” value is 80.14% with soybean rust (dosage 50 mg/L), 85.62% with soybean rust (dosage 75 mg/L) and 93.11% in the test on soybean rust (dosage 100 mg/L).

As for `OC(Cc1ccccc1Cl)(Cn1nc[nH]c1=S)C1(Cl)CC1` (centres unmarked) [Prothioconazole], in test [2] (Glycine max, 168 h, 0.5 mg/L, read-out: Control effect (%) Soybean rust), the pest or weed control at 0.5 µg/mL was 95%. Further, the pest or weed control at 1 µg/mL in test [2] (Glycine max, 168 h, 1 mg/L, read-out: Control effect (%) Soybean rust) was found to be 100%; in test [3] (Blumeria graminis, 168 h, 1 mg/L, read-out: Control effect (%) Wheat powdery mildew), 30%; with cucumber powdery mildew (Cucumis sativus, 192 h, 1 mg/L, read-out: Control effect (%) Cucumber powdery mildew), 75%. The pest or weed control at 2 µg/mL is 100% in test [2] (Glycine max, 168 h, 2 mg/L, read-out: Control effect (%) Soybean rust); 50% in test [3] (Blumeria graminis, 168 h, 2 mg/L, read-out: Control effect (%) Wheat powdery mildew); 80% in the test with cucumber powdery mildew (Cucumis sativus, 192 h, 2 mg/L, read-out: Control effect (%) Cucumber powdery mildew). Also, the pest or weed control at 4 µg/mL in test [2] (Glycine max, 168 h, 4 mg/L, read-out: Control effect (%) Soybean rust) is 100%; in test [3] (Blumeria graminis, 168 h, 4 mg/L, read-out: Control effect (%) Wheat powdery mildew), 70%; in the test with cucumber powdery mildew (Cucumis sativus, 192 h, 4 mg/L, read-out: Control effect (%) Cucumber powdery mildew), 90%. For the same compound, the pest or weed control at 6.25 µg/mL with cucumber powdery mildew (Cucumis sativus, 192 h, 6.25 mg/L, read-out: Control effect (%) Cucumber powdery mildew) turned out to be 85%. Moreover, in the test on cucumber powdery mildew (Cucumis sativus, 192 h, 25 mg/L, read-out: Control effect (%) Cucumber powdery mildew), the pest or weed control at 25 µg/mL came to 98%. In addition, the pest or weed control at 100 µg/mL with cucumber powdery mildew (Cucumis sativus, 192 h, 100 mg/L, read-out: Control effect (%) Cucumber powdery mildew) turned out to be 100%. Further, in the test on wheat powdery mildew, the “Control effect (%) Wheat powdery mildew” value worked out at 93%. The “Control effect (%)” value with soybean rust (dosage 50 mg/L) is 91.15%.
